According to publication PMC4026384, “Antibacterial Activity of THAM Trisphenylguanide against Methicillin-Resistant Staphylococcus aureus” (PLoS ONE, 2014):

What was measured:
[1] = tested on: HaCaT human keratinocytes; assay: Cell toxicity assay (MTS); type: cell-based
[2] = tested on: human breast cancer cell line MDA-MB-231; assay: Cell toxicity assay (MTS); type: cell-based; details: MDA-231
MRSA = assay: In vivo MRSA challenge (intraperitoneal infection); design: species or system BALB/c mice; details: mice, 8 h post infection
Procedure: Three groups of BALB/c mice (8 mice per group) were infected by intraperitoneal (i.p.) injection with 5×10^7 MRSA in 100 µl sterile PBS [16], [17]. The first treatment group was injected i.p. with 100 µl of 100 µM THAM trisphenylguanide in PBS immediately after infection. The second group was injected i.p. with 100 µl of 100 µM THAM trisphenylguanide one hour post-infection. The control group was injected with 100 µl PBS. At eight hours post-infection, all mice were euthanized. An intraperitoneal lavage using 10 ml PBS was performed to recover bacteria within the peritoneal cavity and plated at multiple dilutions on TSA plates. The heart and kidney were removed for evaluation of systemic infection. Briefly, tissues were weighed, homogenized, and plated at multiple dilutions on TSA plates. TSA plates were incubated overnight at 37°C at 5% CO2 and CFU enumerated the next day.

Acanthamoeba castellanii = assay: Toxicity against eukaryotic pathogen; type: cell-based; details: data not shown
[3] = 100 µM i.p. one hour after MRSA infection

SMILES | Relative to chlorhexidine (factor by which cytotoxicity was reduced) [1] | Relative to chlorhexidine (factor by which cytotoxicity was reduced) [2] | reduction in bacterial burden in both organs (kidneys, heart) and IP lavage (MRSA; 100 µM i.p. immediately after MRSA challenge, versus PBS) | reduction of mean CFUs in IP lavages (MRSA; [3]) | reduction of mean CFUs in heart (MRSA; [3]) | reduction of mean CFUs in kidneys (MRSA; [3]) | IC50 (Acanthamoeba castellanii)
N=C(NCCCCCCNc1nc(NCCCCCCNC(=N)Nc2ccccc2)nc(NCCCCCCNC(=N)Nc2ccccc2)n1)Nc1ccccc1 [THAM-3ΦG, Trishexylaminomelamine trisphenylguanide] | 7.1 | 3.0 | approximately 3 log | 2 fold | 3 fold | 20 fold | –
[H]/N=C(\N/C(=N/[H])NCCCCCCNC(=N)NC(=N)Nc1ccc(Cl)cc1)Nc1ccc(Cl)cc1 [Chlorhexidine, chlorhexidine, reference compound] | – | – | – | – | – | – | ~10 µM
